Values of other authors, collected in patent US20050281746A1, “Anticoagulant contrast media” (priority 2004, published 2005).

Key:
[1] = X-ray contrast agents grouped by ionicity and benzene rings
[2] = X-ray contrast agents grouped by structure
[3] = X-ray contrast agents grouped by structure; classes High / Low / Iso

In the case of `CC(=O)N(CC(O)CN(C(C)=O)c1c(I)c(C(=O)NCC(O)CO)c(I)c(C(=O)NCC(O)CO)c1I)c1c(I)c(C(=O)NCC(O)CO)c(I)c(C(=O)NCC(O)CO)c1I` (centres unmarked) [Iodixanol], the Adverse effects [1] is given as “Thrombotic”, the “Viscosity (cps)” value [2] is given as 26 cps and the “Osmolality (mOsm/kg)” value [3] is given as “(280) mOsm/kg”.

For `CC(=O)N(CC(O)CO)c1c(I)c(C(=O)NCC(O)CO)c(I)c(C(=O)NCC(O)CO)c1I` (centres unmarked) [Iohexol], the Adverse effects [1] is listed as “Thrombotic”.

For `CN(C(=O)CO)c1c(I)c(C(=O)NCC(O)CO)c(I)c(C(=O)NCC(O)CO)c1I` (centres unmarked) [Iomerpol], the Adverse effects [1] is given as “Thrombotic”.

For `C[C@H](O)C(=O)Nc1c(I)c(C(=O)NC(CO)CO)c(I)c(C(=O)NC(CO)CO)c1I` [Iopamidol], the Adverse effects [1] is given as “Thrombotic”.

In the case of `COCC(O)CN(C(C)=O)c1c(I)c(C(=O)NCC(O)CO)c(I)c(C(=O)NCC(O)CO)c1I` (centres unmarked) [Iopentol], the Adverse effects [1] is given as “Thrombotic”.

In the case of `COCC(=O)Nc1c(I)c(C(=O)NCC(O)CO)c(I)c(C(=O)N(C)CC(O)CO)c1I` (centres unmarked) [Iopromide], the Adverse effects [1] is listed as “Thrombotic”.
